One experiment deals with T1, lysozyme (Gallus gallus, UniProt P00698).
T1 construct: gene LYZ; docking model 6LYZ and six Trp agree
Kind of experiment: Trp fluorescence quenching, double-log plot. It is filed as binding. The conditions noted are these: 10 mM PBS, 1 mg/mL enzyme, excitation 295 nm. The text has this: Trp fluorescence quenching, double-log plot on lysozyme

The target of another experiment is T2, α-chymotrypsin (Bos taurus, UniProt P00766).
T2 construct: docking model 1YPH agrees
Description: Trp fluorescence quenching, double-log plot. The conditions noted are these: 10 mM PBS, 1 mg/mL enzyme, excitation 295 nm. The class given is binding. The source says: Trp fluorescence quenching, double-log plot on α-chymotrypsin

Each structure is given as a SMILES string.

T1 sequence (P00698 19-147): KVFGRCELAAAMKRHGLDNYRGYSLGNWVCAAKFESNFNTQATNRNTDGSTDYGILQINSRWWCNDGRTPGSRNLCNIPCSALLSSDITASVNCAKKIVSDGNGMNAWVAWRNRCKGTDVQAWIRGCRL

With `C[N+](C)(C)CCO.O=C([O-])CCC(=O)O` [[Ch][Suc]], the “Kb/M^-1 a” value at lysozyme (n = 1.15, ion-pair salt titrated as ligand) amounted to 31.64 ± 6.01 M⁻¹; on α-chymotrypsin (n = 1.19, ion-pair salt titrated as ligand), 30.95 ± 5.69 M⁻¹.
Consider `CC(C)[C@H](N)C(=O)O` [[Ch][Val]], for which the “Kb/M^-1 a” value at lysozyme (n = 0.99, ion-pair salt titrated as ligand, ligand unfolds the tertiary structure) was found to be 73.84 ± 10.34 M⁻¹; at α-chymotrypsin (n = 1.40, ion-pair salt titrated as ligand, ligand perturbs the tertiary structure) it was 280.6 ± 30.05 M⁻¹.

For the origin of these results see publication PMC11990322, “Cholinium-Based Ionic Liquids Modulate Protein Stability: A Comparative Study of Enzymes and Albumins” (Molecules, 2025).
